Test results: patent publication US20110230504A1, “ALLEVIATING DISORDERS WITH COMBINING AGENTS THAT INCREASE EPOXYGENATED FATTY ACIDS AND AGENTS THAT INCREASE cAMP” (The Regents Of The University Of California Office Of …, priority 2008, published 2011)
Entries after “also recorded” stand apart in the source; their conditions may differ.

Key:
StARD1 mRNA [1] = test: StARD1 mRNA 30 min after intraspinal 8-Br cAMP, EETs, AEPU in non-inflamed rats; assay type: in vivo, rat; details: 8-Br cAMP 100 μg, EETs 5 μg, AEPU 1 μg
Description: To investigate the cooperation between cAMP and EETs in the spinal cord, a membrane permeable cAMP analogue, 8-Br cAMP (100 μg), was administered into the spinal cord by lumbar puncture (between L4-L5) and rapid (30 min.) expression of StARD1 mRNA in the spinal cord and the brain was quantified by qRT-PCR. In these experiments animals were maintained under deep anesthesia.

rats [2] = test: Mechanical hind paw withdrawal threshold (Randall-Selitto), non-inflammatory model; assay type: in vivo, rat
Description: Behavioral nociceptive testing was conducted by assessing thermal hindpaw withdrawal latencies (TWL) using a commercial Hargreaves apparatus (IITC, Woodland Hills, Calif.), or by determining mechanical hind paw withdrawal thresholds (MWT) using a digital paw pressure Randall-Selitto instrument (IITC, Woodland Hills, Calif.). On the day of the experiment, rats were transferred to a quiet room, acclimated for 1 hour and their baseline responses were measured. In pilot experiments, the intensity of the thermal stimulus was set to produce a baseline TWL of 7-8 sec. Baseline mechanical hind paw withdrawal thresholds varied between 60-70 grams of force. Immediately following baseline determination all compounds were administered subcutaneously in the following vehicles; Inhibitors of sEH were formulated in trans free oleate and administered in a total volume of 300 µL Rolipram, picrotoxin, flucanozole, miconazole and finasteride were all dissolved in a sterile saline solution containing 25% DMSO and administered in a volume of 50 μl. Caffeine was dissolved in saline and administered in a total volume of 300 μl. All agents were administered subcutaneously into the back. In groups treated with the sEHi, cytochrome P450 inhibitors, finasteride or picrotoxin animals were pretreated one hour before other compounds. In groups treated with the PDEi, immediately following PDEi administration animals were placed in acrylic chambers on a glass platform maintained at a temperature of 30±1° C. for TWL measurement. Three to five TWL measurements were taken at 1-2 min interstimulus intervals following treatments and these were averaged for each animal at each time point. […] The instrument was set to the maximum holding (MH) mode and the readout that elicited a hind paw withdrawal was designated as the threshold. […] Open field activity was quantified using a Plexiglas chamber (40×40×30 cm, length×width×height) imprinted with a 10×10 cm grid. […] The number of crossings were recorded when both hind paws crossed into a neighboring cell. […]

rats [3] = test: Streptozocin induced diabetic neuropathy, Von Frey mechanical allodynia; assay type: in vivo, rat; details: Von Frey's test
Description: The study was approved by UC Davis Animal Care and Use Committee. Male Sprague-Dawley rats weighing 250-350 g were obtained from Charles River Inc. Two models of inflammatory pain and one model of diabetic neuropathic pain were used to test the effects of sEHI. The main inflammatory pain model used involved intraplantar LPS (10 μg/animal) administration as described previously (Inceoglu B et al., Life Sci 79:2311-2319 (2006)). Briefly, following baseline thermal withdrawal latency and mechanical withdrawal threshold determination LPS (in saline) was administered into one hind paw and nociceptive thresholds were monitored over time. The other inflammatory pain model involved intraplantar carrageenan (1% in saline, 50 μl) administration and was only used when sEHI was administered into the spinal cord. Intrathecal catheters were implanted according to Yaksh and Rudy (Yaksh T L and Rudy T A, Physiol Behav 17(6):1031-1036 (1976)). Following baseline nociceptive response measurements carrageenan was administered into one hind paw and responses were monitored over time and after intraspinal sEHI administration. […] In experiments in which EETs, sEHI and cAMP analogue was administered intraspinally animals were maintained under deep anesthesia and therefore nociceptive thresholds were not determined.

rats [4] = test: Thermal hindpaw withdrawal latency (Hargreaves), non-inflammatory model; assay type: in vivo, rat
Description: Behavioral nociceptive testing was conducted by assessing thermal hindpaw withdrawal latencies (TWL) using a commercial Hargreaves apparatus (IITC, Woodland Hills, Calif.), or by determining mechanical hind paw withdrawal thresholds (MWT) using a digital paw pressure Randall-Selitto instrument (IITC, Woodland Hills, Calif.). On the day of the experiment, rats were transferred to a quiet room, acclimated for 1 hour and their baseline responses were measured. In pilot experiments, the intensity of the thermal stimulus was set to produce a baseline TWL of 7-8 sec. Baseline mechanical hind paw withdrawal thresholds varied between 60-70 grams of force. Immediately following baseline determination all compounds were administered subcutaneously in the following vehicles; Inhibitors of sEH were formulated in trans free oleate and administered in a total volume of 300 µL Rolipram, picrotoxin, flucanozole, miconazole and finasteride were all dissolved in a sterile saline solution containing 25% DMSO and administered in a volume of 50 μl. Caffeine was dissolved in saline and administered in a total volume of 300 μl. All agents were administered subcutaneously into the back. In groups treated with the sEHi, cytochrome P450 inhibitors, finasteride or picrotoxin animals were pretreated one hour before other compounds. In groups treated with the PDEi, immediately following PDEi administration animals were placed in acrylic chambers on a glass platform maintained at a temperature of 30±1° C. for TWL measurement. Three to five TWL measurements were taken at 1-2 min interstimulus intervals following treatments and these were averaged for each animal at each time point. For MWT measurement, 45 minutes following treatment, the probe of the Randall-Selitto paw pressure meter was applied to the dorsal surface of the hind paw. The instrument was set to the maximum holding (MH) mode and the readout that elicited a hind paw withdrawal was designated as the threshold. Three MWT measurements were taken at 1-2 min interstimulus intervals and these were averaged for each animal. Data are presented as percent change from each animal's baseline response. Open field activity was quantified using a Plexiglas chamber (40×40×30 cm, length×width×height) imprinted with a 10×10 cm grid. Animals were placed in the middle of the chamber and observed for two minutes. The number of crossings were recorded when both hind paws crossed into a neighboring cell.
A non-inflammatory model was used to test the hypothesis that elevated intracellular cAMP and EETs will act synergistically in producing antinociception. Intracellular cAMP levels were increased by administering increasing doses of two CNS permeable PDEi; rolipram, a PDE-4 selective inhibitor and caffeine, a non selective PDEi. […]

[5] = Brain, blood and plasma inhibitor levels, LC-ESI-MS/MS; details: 10 mg/kg TPAU, 40 mg/kg AUDA; unpublished results
StARD1 mRNA [6] = test: StARD1 expression after rolipram and TPAU, qRT-PCR; assay type: in vivo, rat; details: rats
Description: Briefly, RNA from whole spinal cord, brain and adrenal gland samples were extracted using a purelink Micro to Midi total RNA purification kit (Invitrogen, CA). The RNA samples were quantified by spectrophotometry and converted to cDNA using a high capacity cDNA reverse transcription kit from Applied Biosystems (CA, USA). Taq-man probe for StARD1 (Rn00580695_ml) was used according to manufacturer's instructions to quantify relative gene expression (Applied Biosystems CA, USA). Experiments were performed in triplicate with glyceraldehyde 3-phosphate dehydrogenase gene serving as the endogenous control. Mean fold expression values from corresponding vehicle treated animal tissues were used as calibrators.
These findings encouraged us to investigate the expression of StARD1 message as a marker of steroidogenic activity. […] Adrenal StARD1 from the same animals was also monitored as a marker of peripheral steroidogenesis.

rats [7] = test: Open field / motor activity; assay type: in vivo, rat; details: rolipram 0.1 and TPAU 10 mg/kg
allopregnanolone = test: Radioimmunoassay of allopregnanolone in spinal cord and brain; assay type: in vivo, rat; details: rats, increasing rolipram doses, TPAU 10 mg/kg s.c.
Description: Radioimmunoassays were conducted as previously described (Janis G, C. et al., Alcoholism: Clinical and Experimental Research 22:2055-2061 (1998)). Briefly, spinal cord and brain samples were weighed and suspended in 2.5 ml of 0.3N NaOH, homogenized with a sonic dismembrator, and extracted three times with 3 ml aliquots of 10% ethyl acetate in heptane (vol/vol). Extraction recovery was monitored by the addition of 2000 cpm of [^3H]allopregnanolone. The extracts were purified using solid phase silica columns (Burdick and Jackson, Muskegon, Mich.) and subsequently dried. Samples were reconstituted and assayed in duplicate by the addition of [^3H]allopregnanolone and anti-allopregnanolone antibody (1:2000; Custom synthesis, Reproductive Endocrine Unit, Massachusetts General Hospital). Total binding was determined in the absence of unlabeled allopregnanolone and nonspecific binding was determined in the absence of antibody. The antibody binding reaction is allowed to equilibrate for 2 hours and cold dextran-coated charcoal was used to separate bound from unbound steroid. Bound radioactivity was determined by liquid scintillation spectroscopy. Steroid levels in the samples were extrapolated from a concurrently run standard curve and corrected for their respective extraction efficiencies. The sensitivity of the assay was 0.63 ng/ml. The intraassay coefficient of variation was <5%.

[8] = test system: C57BL/6 mice; sEH null mice; test: Picrotoxin induced seizures; assay type: in vivo, mouse
C57BL/6 mice = test: Pentobarbital induced loss of righting reflex; assay type: in vivo, mouse; details: pentobarbital 40 mg/kg i.p., TPAU 3 mg/kg, rolipram 1 mg/kg s.c.
Description: Loss of righting was quantified as previously described, with a slightly lower dose of pentobarbital (Pinna, et al. (2004) Proc Natl Acad Sci USA, 101(16), 6222-6225).
In rats, sEHi-PDEi combination led to significant increases in nociceptive thresholds. We asked if co-administration of sEHi-PDEi combination would also enhance GABA-related activity in mice. Loss of righting reflex in pentobarbital administered mice following sEHi and PDEi administration was quantified.

[9] = test system: circulating testosterone and progesterone; test: Circulating steroid hormone levels by RIA; assay type: in vivo, rat; details: rats
rats [10] = test: Thermal withdrawal latency, intraplantar LPS inflammatory pain model and non-inflamed controls; assay type: in vivo, rat; details: for effect on AEPU mediated antihyperalgesia: LPS treated rats, AEPU 50 mg/kg topical; for thermal withdrawal latency in the absence of inflammation: control rats, i.pl. saline; for LPS elicited thermal hyperalgesia (thermal withdrawal latency): rats, i.pl. LPS 10 μg
[11] = test system: plasma oxylipins (EETs, DHETs, PGE2); test: Plasma oxylipin analysis in LPS treated rats; assay type: in vivo, rat
Description: Plasma was collected by cardiac puncture under deep anesthesia. Rats were anesthetized by isoflurane overdose and decapitated. Whole brains were immediately excised and flash frozen. […] Dorsal roots were excluded.

[12] = one hour, increasing rolipram doses, TPAU 10 mg/kg

Compound: Nc1ncnc2c1nc(Br)n2[C@@H]1O[C@@H]2COP(=O)(O)O[C@H]2[C@H]1O [8-Br cAMP]
- brain StARD1 expression (StARD1 mRNA [1]): Neither brain nor spinal StARD1 expression changed
- spinal StARD1 expression (StARD1 mRNA [1]): without effect

Compound: O=C(O)CCCCCCCCCCCNC(=O)NC12CC3CC(CC(C3)C1)C2 [AUDA, 12-(3-Adamantan-1-yl-ureido)dodecanoic acid]
- effect on caffeine's increase of mechanical withdrawal threshold (rats [2]; rats, AUDA 40 mg/kg): enhanced
- mechanical allodynia elicited by streptozocin induced diabetic neuropathy (rats [3]): reduced
- thermal withdrawal latency, sEHi alone (rats [4]; rats, s.c., over 4 hours, vs baseline): no significant differences
- plasma inhibitor levels relative to rat sEH IC50 [5]: 200 fold

Compound: OC(Cn1cncn1)(Cn1cncn1)c1ccc(F)cc1F [Flucanozole]
- effect on the dose-effect curve of rolipram (antinociception) (rats [4]; rats, s.c.): antagonized

Compound: COc1ccc(C2CNC(=O)C2)cc1OC1CCCC1 (centres unmarked) [Rolipram]
- decrease in adrenal gland StARD1 expression (StARD1 mRNA [6]): 30%
- brain StARD1 expression (StARD1 mRNA [6]; [12]): no change
- spinal cord StARD1 expression (StARD1 mRNA [6]; [12]): biphasic increase
- ED50 (rats [2]; Rattus norvegicus, sc, rats, rolipram dose, AUDA 40 mg/kg): 0.3 mg/kg
- ED50 (rats [4]; Rattus norvegicus, sc): 0.53 mg/kg
- efficacy, increase over baseline in thermal withdrawal latency (rats [4]; rats, s.c.): 202%
- open field activity / motor function (rats [7]): depression of activity
- brain allopregnanolone levels (allopregnanolone): significantly increased allopregnanolone levels at one dose point only
- spinal cord allopregnanolone levels (allopregnanolone): did not change
- time to onset of picrotoxin induced seizures ([8]; C57BL/6 mice, picrotoxin 10 mg/kg s.c., TPAU 3 mg/kg, rolipram 1 mg/kg s.c.): no effect
- onset of picrotoxin induced seizures in sEH null mice ([8]; sEH null mice, increasing doses): delayed in a dose dependent manner
- duration of pentobarbital induced loss of righting response (C57BL/6 mice): no effect; also recorded: did not change

Compound: CCC1(c2ccc(N)cc2)CCC(=O)NC1=O (centres unmarked) [aminoglutethimide]
- circulating / plasma progesterone level [9]: significantly reduced
- effect on AEPU mediated antihyperalgesia (rats [10]): blocked
- thermal withdrawal latency in the absence of inflammation (rats [10]): failed to alter
- LPS elicited thermal hyperalgesia (thermal withdrawal latency) (rats [10]): failed to alter
- plasma EET/DHET ratio ([11]; LPS and AEPU-treated rats): did not change
- antagonism of sEHI reduction of PGE2 ([11]; LPS+AEPU+AGL treated rats): did not antagonize

Compound: Cn1c(=O)c2c(ncn2C)n(C)c1=O [caffeine]
- open field activity / motor function (rats [7]): did not cause depression of motor activity

Compound: CC(C)(C)NC(=O)[C@H]1CC[C@H]2[C@@H]3CC[C@H]4NC(=O)C=C[C@]4(C)[C@H]3CC[C@]12C [finasteride]
- effect on the dose-effect curve of rolipram (antinociception) (rats [4]; rats, s.c.): antagonized
- effect on AEPU mediated antihyperalgesia (rats [10]): blocked
- thermal withdrawal latency in the absence of inflammation (rats [10]): failed to alter
- LPS elicited thermal hyperalgesia (thermal withdrawal latency) (rats [10]): failed to alter

Compound: Clc1ccc(COC(Cn2ccnc2)c2ccc(Cl)cc2Cl)c(Cl)c1 (centres unmarked) [miconazole]
- effect on the dose-effect curve of rolipram (antinociception) (rats [4]; rats, s.c.): failed to change

Compound: CC#C[C@]1(O)CC[C@H]2[C@@H]3CCC4=CC(=O)CCC4=C3[C@@H](c3ccc(N(C)C)cc3)C[C@@]21C [mifepristone]
- effect on AEPU mediated antihyperalgesia (rats [10]): did not block

Compound: CC1(C)NC(=O)N(c2ccc([N+](=O)[O-])c(C(F)(F)F)c2)C1=O [nilutamide]
- effect on AEPU mediated antihyperalgesia (rats [10]): did not block

Compound: CC(=O)S[C@@H]1CC2=CC(=O)CC[C@]2(C)[C@H]2CC[C@@]3(C)[C@@H](CC[C@@]34CCC(=O)O4)[C@H]12 [spironolactone]
- effect on AEPU mediated antihyperalgesia (rats [10]): did not block

Compound: CC/C(=C(\c1ccccc1)c1ccc(OCCN(C)C)cc1)c1ccccc1 [tamoxifen]
- effect on AEPU mediated antihyperalgesia (rats [10]): did not block

Compound: picrotoxin
- effect on rolipram+AUDA increase in mechanical withdrawal threshold (rats [2]; picrotoxin 0.25 mg/kg): antagonized
- effect on rolipram+AUDA antinociception, thermal withdrawal (rats [4]; picrotoxin 0.25 mg/kg): antagonized
- baseline nociceptive responses, given alone (rats [4]; picrotoxin 0.25 mg/kg s.c.): did not change baseline responses
